Data reported in article PMC5036131, “Fragment-based discovery of a new family of non-peptidic small-molecule cyclophilin inhibitors with potent antiviral activities” (Nature Communications, 2016).
Where two headings read alike, the source gives them in different places.

What was measured:
HCoV-229E = assay: Anti-human coronavirus 229E activity in MRC5 cells; format: cell-based; conditions: 72 h, viral cytopathic effect
CypD = CypD (Homo sapiens, UniProt P30405, K175I); assay: PPIase enzyme assay (chymotrypsin-coupled), CypD; conditions: for LE (ligand efficiency): Supplementary Figure 1, NMR fragment hits
Procedure: (§2) Cyclophilin PPIase activity was measured at 20 °C by using the standard chymotrypsin-coupled assay. […] Then, 5 μl of 50 mg ml^−1 chymotrypsin in 1 mM HCl was added. […] After a delay from the onset of mixing, the absorbance of p-nitroaniline was followed at 390 nm until the reaction was complete (1 min). The final concentration of LiCl in the assay was 20 mM and TFE was present at a concentration of 4% (v/v). Absorbance readings were collected every 1 s by a spectrophotometer. For inhibition assessment, 5 μl of the tested compound in dimethyl sulfoxide (DMSO) was added to the cyclophilin solution in the assay buffer. […] The percentage inhibition of cyclophilin PPIase activity was calculated from the slopes and the values obtained represent the mean±s.d. of at least two independent measurements.

in vitro [1] = conditions: human
CypB = target: T1, CypB (Homo sapiens, UniProt P23284); assay: biochemical; format: biochemical
T1 construct: hexahistidine tag (His-Tag) (C); made in house; host or cells: E. coli C41(DE3)
Procedure: (§1) CypA and CypB proteins carrying a hexahistidine tag (His-Tag) at their carboxy terminus were expressed in E. coli and purified. Briefly, cultures of C41(DE3) cells were grown at 37 °C for 1 h until the culture reached an OD of 0.6 at 600 nm and then induced with 1 mM isopropyl-β-D-thiogalactopyranoside for 4 h at 37 °C (CypA) or overnight at 22 °C (CypB). Cell pellets were resuspended in a lysis buffer 20 mM NaH2PO4 pH 7.8, 300 mM NaCl, 7 mM β-mercaptoethanol, 1 mg ml^−1 lysozyme, 0.1 U μl^−1 desoxyribonuclease and complete protease inhibitor tablets (Roche Diagnostics Corporation, Indianapolis, Indiana). […] The bound protein was eluted in 1 ml fractions with a buffer composed of 20 mM NaH2PO4 pH 7.8, 300 mM NaCl, 250 mM imidazole, 7 mM β-mercaptoethanol and 10% glycerol, monitored by the Bradford colorimetric assay. The purity of each cyclophilin was determined by Coomassie-stained SDS–PAGE analysis.

in vitro [2] = conditions: human; remark: listed apart in the source
CypA = target: T2, CypA (Homo sapiens, UniProt P62937); assay: PPIase enzyme assay (chymotrypsin-coupled), CypA; format: biochemical; conditions: 20 °C, mean±s.d.
T2 construct: hexahistidine tag (His-Tag) (C); made in house; host or cells: E. coli C41(DE3)
Procedure: as §1

HCV genotype 1b replicon = assay: microbe, parasite or virus in culture; format: cell-based, hepatitis C virus
[3] = target: cyclophilin PPIase activity; assay: PPIase enzyme assay, cyclophilin not specified; format: biochemical, human; conditions: compounds lacking the ester function; read-out: cyclophilin inhibition IC50
Procedure: as §2

Huh7 cells = assay: Cellular toxicity in Huh7 replicon cells; conditions: read-out: HCV genotype 1b replicon CC50; Huh7 cells
MT4 cells = assay: Cytotoxicity in uninfected MT4 cells; conditions: read-out: MT4 cells CC50
HIV-IIIb = assay: Anti-HIV activity in MT4 cells; format: cell-based, human immunodeficiency virus; conditions: 5 days
MRC5 cells = assay: Cellular toxicity in MRC5 cells; conditions: read-out: MRC5 cells CC50; MRC5 cells
calcineurin = assay: Calcineurin phosphatase assay; format: biochemical; conditions: binary complex with CypA, 1:1 molar ratio
Procedure: The inhibition of calcineurin phosphatase activity was measured by measuring the dephosphorylation of p-nitrophenyl phosphate (R&D Systems, Minneapolis, USA), according to the manufacturer’s instructions. […] After p-nitrophenyl phosphate addition, the reaction was run for 35 min at 37 °C. The reaction was terminated by addition of BIOMOL green reagent and OD was measured at 630 nm. The results are the means of three independent experiments performed in duplicate. They are presented as the percentage of calcineurin activity relative to that in the inhibitor-free control.

mPTP = test system: mPTP; parameters: method as in Panel M, Ahmed-Belkacem A, et al., manuscript in preparation; conditions: as a result of CypD inhibition; ref Panel M, Ahmed-Belkacem A, et al., manuscript in preparation; cited from earlier work
[4] = test system: IL-2 production in Jurkat cells; assay: Inhibition of IL-2 production in Jurkat cells; format: cell-based; conditions: stimulated Jurkat cells
Procedure: Duplicate evaluations were included for each test concentration. […] After a 6 h incubation, sample supernatants were collected for measurement of IL-2 production using a commercial kit (Quantikine ELISA, R&D Systems).

[5] = Cellular toxicity in Huh7 replicon cells; conditions: human, Huh7 cells with HCV genotype 1b replicon
[6] = Cellular toxicity in MRC5 cells; conditions: human, MRC-5 cells
[7] = Hepatitis C virus, Huh-7, 72 h, read-out: HCV genotype 1b replicon EC50
[8] = read-out: CypD IC50, PPIase enzyme assay, 20 °C, mean±s.d.
[9] = PPIase enzyme assay, 20 °C, mean±s.d., read-out: CypB IC50
[10] = Huh7 cells, 3 days, HCV RNA, read-out: HCV genotype 1b replicon EC50
[11] = wild-type genotype 1b replicon, comparison with mutated replicons (Table 3), read-out: EC50 HCV (WT) subgenomic replicon

T1 sequence (P23284 34-216): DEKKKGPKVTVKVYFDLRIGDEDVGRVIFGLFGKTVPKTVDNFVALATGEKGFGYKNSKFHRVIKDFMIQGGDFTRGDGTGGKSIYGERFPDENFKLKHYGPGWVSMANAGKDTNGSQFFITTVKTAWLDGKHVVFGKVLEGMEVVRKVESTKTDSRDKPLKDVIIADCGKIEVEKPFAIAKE
T2 sequence (P62937 whole entry): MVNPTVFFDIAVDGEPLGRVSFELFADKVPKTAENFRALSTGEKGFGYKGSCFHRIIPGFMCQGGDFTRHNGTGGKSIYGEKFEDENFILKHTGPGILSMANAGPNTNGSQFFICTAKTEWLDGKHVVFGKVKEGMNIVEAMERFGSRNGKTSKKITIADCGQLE
Chain of CypD (P30405 44-207 K175I): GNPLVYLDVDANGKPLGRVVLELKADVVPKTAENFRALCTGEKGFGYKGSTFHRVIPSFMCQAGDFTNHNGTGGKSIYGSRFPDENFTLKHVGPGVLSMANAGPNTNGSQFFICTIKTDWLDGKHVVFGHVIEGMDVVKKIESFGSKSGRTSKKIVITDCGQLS

Compound: C/C=C/C[C@@H](C)[C@@H](O)[C@H]1C(=O)N[C@@H](CC)C(=O)N(C)[C@H](C)C(=O)N(CC)[C@@H](C(C)C)C(=O)N[C@@H](C(C)C)C(=O)N(C)[C@@H](CC(C)C)C(=O)N[C@@H](C)C(=O)N[C@H](C)C(=O)N(C)[C@@H](CC(C)C)C(=O)N(C)[C@@H](CC(C)C)C(=O)N(C)[C@@H](C(C)C)C(=O)N1C [Alisporivir, alisporivir, reference compound]
- EC50 (HCoV-229E; Human coronavirus 229E): 2.6 ± 0.6 µM
- IC50 (CypD): 0.03 ± 0.005 µM
- CC50 at 72 h (in vitro [1]): 9.7 ± 2.2 µM
- IC50 (CypB): 0.04 ± 0.012 µM
- CC50 (in vitro [2]): 32.3 ± 22 µM
- IC50 (CypA): 0.07 ± 0.003 µM
- EC50 (HCV genotype 1b replicon; [7]): 0.01 ± 0.0007 µM
- EC50 (HCV genotype 1b replicon; Hepatitis C virus, Huh-7, read-out: EC50 HCV (WT) subgenomic replicon): 0.04 ± 0.0005 µM

Compound: Nc1ccc(CNC(=O)NCC(=O)N2CCCC2)cc1 [Compound 23]
- IC50 (CypD; [8]): > 500 µM
- IC50 (CypB; [9]): > 500 µM
- IC50 (CypA): > 500 µM
- IC50 [3]: > 500 µM

Compound: COc1ccccc1C1CCCN1C(=O)CNC(=O)NCc1ccc(N)cc1 (stereo not drawn) [Compound 24]
- IC50 (CypD; [8]): 11.4 ± 3 µM
- IC50 (CypB; [9]): 1.2 ± 0.1 µM
- IC50 (CypA): 2.8 ± 0.6 µM

Compound: Nc1ccc(CNC(=O)NCC(=O)N2CCCC2c2ccccc2Cl)cc1 (stereo not drawn) [Compound 25]
- IC50 (CypD; [8]): 6.2 ± 2.3 µM
- IC50 (CypB; [9]): 3.7 ± 1.4 µM
- IC50 (CypA): 3.4 ± 0.7 µM

Compound: Nc1ccc(CNC(=O)NCC(=O)N2CCCC2c2ccccc2Br)cc1 (stereo not drawn) [Compound 26]
- EC50 (HCoV-229E): 66.3 ± 24 µM
- CC50 (Huh7 cells): > 100 µM
- CC50 (MT4 cells): > 53 µM
- EC50 (HCV genotype 1b replicon; [10]): 6 ± 0.7 µM
- EC50 (HIV-IIIb): 3.6 ± 0.8 µM
- CC50 (MRC5 cells): > 100 µM

Compound: CSc1ccccc1C1CCCN1C(=O)CNC(=O)NCc1ccc(N)cc1 (stereo not drawn) [Compound 27]
- EC50 (HCoV-229E): 34.6 ± 18.3 µM
- IC50 (CypD; [8]): 0.6 ± 0.1 µM
- CC50 (Huh7 cells): > 100 µM
- IC50 (CypA): 0.4 ± 0.1 µM
- CC50 (MT4 cells): > 53 µM
- EC50 (HCV genotype 1b replicon; [10]): 2.7 ± 2.5 µM
- EC50 (HCV genotype 1b replicon; [11]): 5.6 ± 0.7 µM
- EC50 (HIV-IIIb): 6.8 ± 2.3 µM
- CC50 (MRC5 cells): > 100 µM

Compound: Nc1ccc(CNC(=O)NCC(=O)N2CCCC2c2cccc3ccccc23)cc1 (stereo not drawn) [Compound 28]
- IC50 (CypD; [8]): 1.4 ± 0.2 µM
- IC50 (CypB; [9]): 1.8 ± 0.9 µM
- IC50 (CypA): 1.5 ± 0.5 µM

Compound: CSc1ccccc1C1CCCN1C(=O)C(NC(=O)NCc1ccc(N)cc1)c1ccccc1 (stereo not drawn) [Compound 31]
- EC50 (HCoV-229E): 44.7 ± 2.2 µM
- inhibition of calcineurin phosphatase activity (calcineurin): no inhibition was observed
- IC50 (CypD; [8]): 0.2 ± 0.08 µM
- mPTP opening (mPTP): inhibits mPTP opening
- IC50 (CypB; [9]): 0.08 ± 0.04 µM
- CC50 (Huh7 cells): > 100 µM
- IC50 (CypA): 0.1 ± 0.07 µM
- EC50 fold higher than the EC50 of alisporivir (HCV genotype 1b replicon; HCV genotype 1b replicon, Huh7 cells): ~40
- EC50 (HCV genotype 1b replicon; [10]): 0.4 ± 0.3 µM
- EC50 (HCV genotype 1b replicon; [11]): 0.3 ± 0.16 µM
- EC50 [4]: > 20 µM
- CC50 (MRC5 cells): > 100 µM

Compound: CCOC(=O)CNC(=O)NC1CCc2ccc(N)cc21 (stereo not drawn) [Compound 32]
- EC50 (HCoV-229E; Human coronavirus 229E): 71.5 ± 4.3 µM
- IC50 (CypD): 12.8 ± 2.5 µM
- IC50 (CypB; [9]): 8.7 ± 1.5 µM
- CC50 [5]: > 100 µM
- IC50 (CypA): 7.4 ± 6.8 µM
- EC50 (HCV genotype 1b replicon; [7]): 8 ± 1.3 µM
- CC50 at 72 h [6]: > 100 µM

Compound: COC(=O)CS(=O)(=O)c1ccccc1 [Fragment 1]
- % CypD inhibition (%I) at 1 mM (CypD): 40%
- LE (ligand efficiency) (CypD): < 0.29

Compound: O=S1(=O)CC=CC1 [Fragment 2]
- % CypD inhibition (%I) at 1 mM (CypD): 2%

Compound: Nc1ccc(C(=O)O)cc1 [Fragment 3]
- % CypD inhibition (%I) at 1 mM (CypD): 32%
- LE (ligand efficiency) (CypD): < 0.42

Compound: ON=Cc1ccccc1 [Fragment 8]
- % CypD inhibition (%I) at 1 mM (CypD): 32%
- LE (ligand efficiency) (CypD): < 0.46

Compound: Nc1ccc(S(=O)(=O)NC(=O)c2ccccc2)cc1 [Fragment 9]
- % CypD inhibition (%I) at 1 mM (CypD): 39%
- LE (ligand efficiency) (CypD): < 0.24

Compound: O=CN1CCCC1 [Fragment 13]
- IC50 (CypD; [8]): > 5000 µM
- IC50 (CypB; [9]): > 5000 µM
- IC50 (CypA): > 5000 µM

Compound: O=C(NC(=O)c1c(F)cccc1Cl)NC1c2ccccc2-c2ccccc21 [TMN-355, reference compound]
- IC50 (CypD; [8]): > 100 µM
- IC50 (CypB; [9]): > 100 µM
- CC50 (Huh7 cells): 4.48 ± 2.1 µM
- EC50 (HCV genotype 1b replicon; [10]): > 50 µM
- CC50 (MRC5 cells): 1.04 ± 0.46 µM
